# Data as given in patent US6294539A, “Heterocyclic hydroxamic acid derivatives as MMP inhibitors” (Advanced Syntech, LLC, priority 2000, dated 2001).
# Molecular target: MMP-9 (Homo sapiens, UniProt P14780)
# Experiment: MMP-9 inhibition assay (internally quenched fluorescent peptide substrate)
# Assay type: biochemical
# Details: 1 μM; purified MMP-9 enzyme, incubation at 37 C
# Description: Each of the compounds of Examples 5-12 were assayed for their efficacy as MMP-9 inhibitors. The assay for MMP-9 inhibitors was performed by mixing purified MMP-9 enzyme with assay buffer, substrate, and compound to be tested. The substrate is an internally quenched fluorescent peptide that becomes unquenched upon cleavage by MMP-9 enzyme. After incubation at 37 C., the assay is stopped by addition of EDTA solution and the fluorescence is measured. The fluorescence is directly proportional to enzyme activity. A compound that is an inhibitor of MMP-9 activity will reduce the resultant fluorescent values.
# Sequence of MMP-9 (P14780 94-707, species assumed): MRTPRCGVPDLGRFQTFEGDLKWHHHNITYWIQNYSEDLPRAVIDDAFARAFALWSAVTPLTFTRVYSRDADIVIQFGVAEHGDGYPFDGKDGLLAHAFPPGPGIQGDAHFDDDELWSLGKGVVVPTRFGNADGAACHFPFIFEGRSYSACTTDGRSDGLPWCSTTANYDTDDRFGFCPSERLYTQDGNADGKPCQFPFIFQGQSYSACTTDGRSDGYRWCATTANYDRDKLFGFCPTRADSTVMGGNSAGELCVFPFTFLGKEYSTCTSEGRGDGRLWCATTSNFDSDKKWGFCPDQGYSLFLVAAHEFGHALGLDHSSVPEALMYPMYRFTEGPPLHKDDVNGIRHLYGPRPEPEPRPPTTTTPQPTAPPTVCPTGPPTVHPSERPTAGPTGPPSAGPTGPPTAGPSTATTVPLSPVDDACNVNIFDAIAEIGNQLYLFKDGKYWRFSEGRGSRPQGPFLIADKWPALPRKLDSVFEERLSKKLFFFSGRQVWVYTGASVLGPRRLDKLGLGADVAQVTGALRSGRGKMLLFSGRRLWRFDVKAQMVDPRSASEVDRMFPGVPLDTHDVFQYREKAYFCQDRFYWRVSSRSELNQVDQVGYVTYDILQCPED
row,SMILES,inhibition at 1 µM [%]
1,"COc1ccc(S(=O)(=O)N(CCc2cccc(Cl)c2)CC(=O)N2CC(=O)N(Cc3ccc(F)cc3)CC2CC(=O)NO)cc1 (stereo not drawn) [Example 4, 2-{1-[N-(3-Chlorophenethyl)-N-(4-methoxybenzenesufonyl)-aminoacetyl]-4-(4-fluorobenzyl)-5-oxo-piperazin-2-yl}-N-hydroxy-acetamide]",52
2,"COc1ccc(CCN(CC(=O)N2CC(=O)N(Cc3ccc(F)cc3)CC2CC(=O)NO)S(=O)(=O)c2ccc(OC)cc2)cc1 (stereo not drawn) [Example 5, 2-{4-(4-fluorobenzyl)-1-[N-(4-methoxybenzenesufonyl)-N-(4-methoxyphenethyl)-aminoacetyl]-5-oxo-piperazin-2-yl}-N-hydroxy-acetamide]",42
3,"COc1ccc(S(=O)(=O)N(CCc2cccc(Cl)c2)CC(=O)N2CC(=O)N(Cc3cc(OC)cc(OC)c3)CC2CC(=O)NO)cc1 (stereo not drawn) [Example 7, 2-{1-[N-(3-Chlorophenethyl)-N-(4-methoxybenzenesufonyl)-aminoacetyl]-4-(3,5-dimethoxybenzyl)-5-oxo-piperazin-2-yl}-N-hydroxy-acetamide]",62
4,"COc1ccc(CCN(CC(=O)N2CC(=O)N(Cc3cc(OC)cc(OC)c3)CC2CC(=O)NO)S(=O)(=O)c2ccc(OC)cc2)cc1 (stereo not drawn) [Example 8, 2-{4-(3,5-Dimethoxybenzyl)-1-[N-(4-methoxybenzenesufonyl)-N-(4-methoxyphenethyl)-aminoacetyl]-5-oxo-piperazin-2-yl}-N-hydroxy-acetamide]",35

# Same assay, conditions: purified MMP-9 enzyme, incubation at 37 C
row,SMILES,IC50 [nM]
1,"COc1ccc(S(=O)(=O)N(CCc2cccc(Cl)c2)CC(=O)N2C(CC(=O)NO)CN(Cc3ccc(F)cc3)C(=O)[C@@H]2C)cc1 (single isomer, unassigned) [3A (isomer A)]",50
2,"COc1ccc(S(=O)(=O)N(CCc2cccc(Cl)c2)CC(=O)N2C(CC(=O)NO)CN(Cc3ccc(F)cc3)C(=O)[C@@H]2C)cc1 (single isomer, unassigned) [3B (isomer B)]",53
3,"COc1ccc(CCN(CC(=O)N2C(CC(=O)NO)CN(Cc3ccc(F)cc3)C(=O)[C@@H]2C)S(=O)(=O)c2ccc(OC)cc2)cc1 (stereo partly drawn) [Example 6, 2-{4-(4-Fluorobenzyl)-1-[N-(4-methoxybenzenesufonyl)-N-(4-methoxyphenethyl)-aminoacetyl]-6-(S)-methyl-5-oxo-piperazin-2-yl}-N-hydroxy-acetamide]",100
4,"COc1ccc(S(=O)(=O)N(CCc2cccc(Cl)c2)CC(=O)N2C(CC(=O)NO)CN(Cc3cc(OC)cc(OC)c3)C(=O)[C@@H]2C)cc1 (stereo partly drawn) [Example 9, 2-{1-[N-(3-Chlorophenethyl)-N-(4-methoxybenzenesufonyl)-aminoacetyl]4-(3,5-dimethoxybenzyl)-6-(S)-methyl-5-oxo-piperazin-2-yl}-N-hydroxy-acetamide]",120
5,"COc1ccc(CCN(CC(=O)N2C(CC(=O)NO)CN(Cc3cc(OC)cc(OC)c3)C(=O)[C@@H]2C)S(=O)(=O)c2ccc(OC)cc2)cc1 (stereo partly drawn) [Example 10, 2-{4-(3,5-dimethoxybenzyl)-1-[N-(4-methoxybenzenesufonyl)-N-(4-methoxyphenethyl)-aminoacetyl]-6-(S)-methyl-5-oxo-piperazin-2-yl}-N-hydroxy-acetamide]",150
